SMILES strings stand for the structures. ≈ marks a conversion by molar mass, not a printed value. Calls of active or inactive are those of the source. No cut-off for these calls is given here.

The values below come from ChEMBL document CHEMBL5550098, “Discovery of N-benzylbenzamide-based allosteric inhibitors of Aurora kinase A” (Bioorg Med Chem, 2024).

Data set [1] concerns the target T1, Aurora kinase A (Homo sapiens, UniProt O14965).
T1 sequence (O14965 whole entry): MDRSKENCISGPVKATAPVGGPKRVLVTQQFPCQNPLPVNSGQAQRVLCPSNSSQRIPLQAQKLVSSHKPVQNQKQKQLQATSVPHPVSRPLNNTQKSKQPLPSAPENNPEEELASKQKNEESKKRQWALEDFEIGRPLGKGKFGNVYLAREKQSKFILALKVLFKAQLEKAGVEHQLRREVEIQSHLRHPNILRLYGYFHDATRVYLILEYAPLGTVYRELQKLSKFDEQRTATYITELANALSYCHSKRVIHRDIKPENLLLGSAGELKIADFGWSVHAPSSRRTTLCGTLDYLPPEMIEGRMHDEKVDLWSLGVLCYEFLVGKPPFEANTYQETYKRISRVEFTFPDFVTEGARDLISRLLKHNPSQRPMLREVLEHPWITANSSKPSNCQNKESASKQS
In words: Allosteric inhibition of AurkA (unknown origin).

The test system of data set [2] is HeLa. Nature of the data set: Inhibition of DNA replication during G1 to S transition in nocodazole synchronized human HeLa cells assessed as reduction in Edu content in new synthesized DNA by measuring Edu positive cells at 1 uM measured after 9 hrs by Edu incorporation based flow cytometry analysis (reference value: 16.8%). On the set-up: scale not given: the % may be the effect or the level left. The data set is classed as functional, cell-based.

Data set [3] concerns HeLa. In words: Inhibition of DNA replication during G1 to S transition in nocodazole synchronized human HeLa cells assessed as reduction in Edu content in new synthesized DNA by measuring Edu positive cells at 1 uM measured after 8 hrs by Edu incorporation based flow cytometry analysis (reference value: 19.7%). The format is functional, cell-based. On the set-up: scale not given: the % may be the effect or the level left.

Data set [4] relates to A549. In words: Induction of cell cycle arrest in human A549 cells assessed as G1/S phase transition at 100 uM measured after 48 hrs by RNase/PI staining based flow cytometry analysis. The format is functional.
Data set [5] concerns HT-29. In words: Downregulation of phospho-histone H3 level at Ser10 residue in human HT-29 cells at 20 uM measured at 48 hrs by Western blot analysis. The data set is classed as functional, cell-based.
Data set [6] has as its system HeLa. In words: Inhibition of DNA replication during G1 to S transition in nocodazole synchronized human HeLa cells assessed as reduction in Edu content in new synthesized DNA by measuring Edu positive cells at 100 uM measured after 9 hrs by Edu incorporation based flow cytometry analysis (reference value: 16.8%). The data set is classed as functional. More on the design: scale not given: the % may be the effect or the level left.

Data set [7] relates to HeLa. In words: Induction of cell cycle arrest in human HeLa cells at 100 uM measured after 48 hrs by RNase/PI staining based flow cytometry analysis. The format is functional.
Data set [8] is described as follows: Aqueous solubility of compound at pH 7.4. The data set is classed as physicochemical.
In data set [9] the test system is HCT-116. In words: Induction of cell cycle arrest at G2/M phase in human HCT-116 cells at 100 uM measured after 48 hrs by RNase/PI staining based flow cytometry analysis. The data set is classed as functional.
The test system of data set [10] is HT-29. Nature of the data set: Downregulation of phospho-histone H3 level at Ser10 residue in human HT-29 cells at 20 uM measured at 12 to 24 hrs by Western blot analysis. The data set is classed as functional, cell-based. As to conditions: time 12-24 hrs.
Data set [11] has as its system HeLa. Nature of the data set: cells. As to conditions: Homo sapiens, 72 h.
The subject of data set [12] is HCT-116. In words: Downregulation of phospho-histone H3 level at Ser10 residue in human HCT-116 cells at 20 uM measured at 12 to 24 hrs by Western blot analysis. As to conditions: time 12-24 hrs. The format is functional, cell-based.
The subject of data set [13] is PANC-1. In words: Induction of cell cycle arrest in human PANC-1 cells at 100 uM measured after 48 hrs by RNase/PI staining based flow cytometry analysis. The format is functional.
Data set [14] has as its system NCI-H358. In words: Induction of cell cycle arrest in human NCI-H358 cells assessed as G1/S phase transition at 100 uM measured after 48 hrs by RNase/PI staining based flow cytometry analysis. The format is functional.
Data set [15] concerns HeLa. Nature of the data set: Inhibition of DNA replication during G1 to S transition in nocodazole synchronized human HeLa cells assessed as reduction in Edu content in new synthesized DNA by measuring Edu positive cells at 100 uM measured after 8 hrs by Edu incorporation based flow cytometry analysis (reference value: 19.7%). The format is functional. More on the design: scale not given: the % may be the effect or the level left.

The subject of data set [16] is HT-29. Nature of the data set: Induction of cell cycle arrest at G2/M phase in human HT-29 cells at 100 uM measured after 48 hrs by RNase/PI staining based flow cytometry analysis. The data set is classed as functional.
Data set [17] in a line: Permeability of compound at 5 uM by PAMPA assay. The data set is classed as ADME. As to conditions: read-out: permeability.
For data set [18], the system named is HCT-116. Nature of the data set: Downregulation of phospho-histone H3 level at Ser10 residue in human HCT-116 cells at 20 uM measured at 48 hrs by Western blot analysis. The format is functional, cell-based.
Data set [19] concerns HeLa. Nature of the data set: Antiproliferative activity against human HeLa cells assessed as inhibition of cell growth incubated for 72 hrs in absence of PHA-767491 by celltiter-glo assay. The format is functional.

`COc1ccc(CNC(=O)C(C)Oc2ccc3c(c2)c2ccnc4c5ccccc5c(=O)n3c24)cc1` (stereo unspecified) came in with an IC50 in data set [1] of less than 20 µM.

For `Cc1cc(Nc2cc(N3CCN(C)CC3)nc(Sc3ccc(NC(=O)C4CC4)cc3)n2)n[nH]1`, the Activity in [2] is 22.1%; in data set [3], 21.7%.

Compound `CC1=C(C(=O)Nc2ccc(F)cc2F)[C@H](c2cccnc2)C2=C(C[C@@H](c3ccccc3)CC2=O)N1` gave an IC50 in data set [1] of less than 20 µM.

On to `O=C(NCc1ccc2c(c1)OCO2)c1cccc(-c2ccncc2)c1`, for which the result in [4], in data set [5], in data set [9], in data set [14], in data set [16] and in data set [18] was Active. For the same compound, the Activity in data set [6] is listed as 1.6%; in data set [15], 7%. Also, the outcome in data set [7], in data set [10], in data set [12] and in data set [13] was inactive. In addition, the concentration in solution in data set [8] (solubility) was 161 µM (≈ 53.5 µg/mL). The GI50 in data set [11] is 14 µM; in [19] it was 71.7 µM. The Papp at 5 µM in [17] is 65.5 ×10⁻⁶ cm/s.

The compound `CC(Oc1ccc2c(c1)c1ccnc3c4ccccc4c(=O)n2c13)C(=O)NCc1ccc2c(c1)OCO2` (stereo unspecified) displayed an IC50 in data set [1] of less than 20 µM.
